Measured values reported in patent US20230348456A1, “QUINAZOLINONES, PHARMACEUTICAL COMPOSITIONS CONTAINING THE SAME, AND METHODS OF USING THE SAME” (Repare Therapeutics Inc., priority 2022, published 2023).

Target: recombinant human Myt1 (Homo sapiens (Human), UniProt Q99640)
Assay: Myt1 enzymatic assay (ADP-Glo kinase assay)
Type: biochemical
Settings: recombinant human Myt1 18 nM, ATP 10 μM
Method: Detection of Myt1 kinase activity utilized a recombinant human Myt1 kinase assay measuring the hydrolysis of ATP using a commercially available ADP-Glo Assay (ADP-Glo™ Kinase Assay from Promega, 10 000 assays, #V9102). Briefly, 5 μL recombinant human Myt1 (full length PKMYT1 recombinant human protein expressed in insect cells from Thermo Fisher #A33387; ˜80% purity) was prepared in reaction buffer (70 mM HEPES, 3 mM MgCl2, 3 mM MnCl2, 50 μg/ml PEG 20000, 3 μM Na-orthovanadate, 1.2 mM DTT) and added to 384 well white polystyrene, flat bottom well, non-treated, microplate (Corning #3572). After this, 5 μL of compounds (diluted in reaction buffer to 0.5% DMSO) was added to the microplate and the plate was spun briefly and incubated at 22° C. for 15 minutes. Ultra-Pure Adenosine Triphosphate (ATP) solution (ADP-Glo kit from Promega) was diluted in reaction buffer and 5 μL was added to the microplate, spun down briefly and incubated for 60 minutes at 30° C. The final Myt1 enzyme concentration was 18 nM and the final ATP concentration was 10 μM. After the 60-minute incubation, 15 μL of ADP-Glo reagent was added and the plate was spun briefly and sealed and incubated in the dark for 40 minutes at 22° C. Following this, 30 μL of kinase detection reagent was added per well and the plate was spun briefly, sealed and incubated for 45-60 minutes at 22° C. in the dark. Luminescence was read using the Envision (250 ms integration). The IC50 and the % max inhibition were calculated for each inhibitor compound tested.

recombinant human Myt1, sequence (Q99640 whole entry): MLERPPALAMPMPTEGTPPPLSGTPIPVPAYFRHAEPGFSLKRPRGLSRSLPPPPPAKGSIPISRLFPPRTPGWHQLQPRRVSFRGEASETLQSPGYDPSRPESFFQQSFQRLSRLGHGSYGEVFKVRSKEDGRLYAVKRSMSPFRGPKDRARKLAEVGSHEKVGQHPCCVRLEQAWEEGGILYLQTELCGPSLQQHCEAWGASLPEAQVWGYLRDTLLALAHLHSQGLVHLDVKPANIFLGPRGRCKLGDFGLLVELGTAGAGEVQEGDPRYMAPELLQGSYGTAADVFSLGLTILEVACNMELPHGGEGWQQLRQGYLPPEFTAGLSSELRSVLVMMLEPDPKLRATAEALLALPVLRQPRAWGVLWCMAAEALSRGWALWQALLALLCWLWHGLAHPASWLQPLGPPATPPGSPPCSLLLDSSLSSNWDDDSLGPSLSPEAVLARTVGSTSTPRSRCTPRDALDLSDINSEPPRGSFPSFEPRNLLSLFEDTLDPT

SMILES | IC50 [nM]
Nc1c(-c2cccc3[nH]ncc23)cc(-c2cnn(C3CCOCC3)c2)c2nc(-c3ccncc3)[nH]c(=O)c12 [Compound 67] | 3
Nc1c(-c2cccc3[nH]ncc23)cc(-c2cnn(CC3CC3)c2)c2nc(-c3ccncc3)[nH]c(=O)c12 [Compound 68] | 6
Cc1ccc(O)cc1-c1cc(Br)c2c(c1N)C(=O)NC2 [Compound 69] | 864
Nc1c(-c2cccc3[nH]ncc23)cc(-c2cccc(OC[C@H]3CCCO3)n2)c2nc(-c3ccncc3)[nH]c(=O)c12 [Compound 70] | 4
Nc1c(-c2cccc3[nH]ncc23)cc(C2=CCC(F)(F)CC2)c2nc(-c3ccncc3)[nH]c(=O)c12 [Compound 71] | 21
Nc1c(-c2cccc3[nH]ncc23)cc(-c2cnn(C3CC3)c2)c2nc(-c3ccncc3)[nH]c(=O)c12 [Compound 72] | 3
Nc1c(-c2cccc3[nH]ncc23)cc(-c2cnn(C(F)F)c2)c2nc(-c3ccncc3)[nH]c(=O)c12 [Compound 73] | 4
Nc1c(-c2cccc3[nH]ncc23)cc(-n2ccc(C3CC3)n2)c2nc(-c3cccnc3)[nH]c(=O)c12 [Compound 74, 5-amino-8-(3-cyclopropylpyrazol-1-yl)-6-(1H-indazol-4-yl)-2-(3-pyridyl)-3H-quinazolin-4-one] | 11
Nc1c(-c2cccc3[nH]ncc23)cc(-n2cc(F)cn2)c2nc(-c3cccnc3)[nH]c(=O)c12 [Compound 75] | 6
Nc1c(-c2cccc3[nH]ncc23)cc(-n2ccc(C3CCOCC3)n2)c2nc(-c3cccnc3)[nH]c(=O)c12 [Compound 76] | 8
Nc1c(-c2cccc3[nH]ncc23)cc(-n2cccn2)c2nc(-c3cccnc3)[nH]c(=O)c12 [Compound 79] | 3
Nc1c(-c2cccc3[nH]ncc23)cc(-c2cccc(=O)[nH]2)c2nc(-c3cccnc3)[nH]c(=O)c12 [Compound 80] | 6
Nc1c(-c2cccc3[nH]ncc23)cc(-c2cnn(C3CCOCC3)c2)c2nc(-c3cccnc3)[nH]c(=O)c12 [Compound 81] | 4
Nc1c(-c2cccc3[nH]ncc23)cc(-c2ccccn2)c2nc[nH]c(=O)c12 [Compound 82] | 35
Nc1c(-c2cccc3[nH]ncc23)cc(Br)c2nc(-c3ccncc3)[nH]c(=O)c12 [Compound 83] | 5
Cc1ccc(O)cc1-c1ccc2c(c1N)C(=O)NC2 [Compound 85] | 16000
Nc1c(-c2cccc3[nH]ncc23)cc(-n2cc3c(n2)CCC3)c2nc(-c3ccncc3)[nH]c(=O)c12 [Compound 86] | 18
Nc1c(-c2cccc3[nH]ncc23)cc(-n2cc(C(F)(F)F)cn2)c2nc(-c3ccncc3)[nH]c(=O)c12 [Compound 87] | 100
Cc1ccc2[nH]ncc2c1-c1cc(-c2cccc(OCCN3CCOCC3)n2)c2nc[nH]c(=O)c2c1N [Compound 88] | 5
Cc1ccc2[nH]ncc2c1-c1cc(-c2cccc(OCCN3CCCC3)n2)c2nc[nH]c(=O)c2c1N [Compound 89] | 13
Cc1ccc2[nH]ncc2c1-c1cc(-c2cccc(OCc3nccn3C)n2)c2nc[nH]c(=O)c2c1N [Compound 90] | 11
Cc1ccc2[nH]ncc2c1-c1cc(-c2cccc(OCc3ncco3)n2)c2nc[nH]c(=O)c2c1N [Compound 91] | 5
Nc1c(-c2cccc3[nH]ncc23)cc(C2CC2)c2nc(-c3cccnc3)[nH]c(=O)c12 [Compound 92] | 7
Cc1ccc(O)cc1-c1cc(-c2nccs2)c2c(c1N)C(=O)NC2 [Compound 93] | 22
Nc1c(-c2cccc3[nH]ncc23)cc(-c2cccc(OCC(=O)O)c2)c2nc[nH]c(=O)c12 [Compound 94] | 46
Nc1c(-c2cccc3[nH]ncc23)cc(-c2cccc(OCc3ncco3)c2)c2nc[nH]c(=O)c12 [Compound 95] | 10
Nc1c(-c2cccc3[nH]ncc23)ccc2nc(-c3ccncc3)[nH]c(=O)c12 [Compound 96] | 67
Cc1ccc2[nH]ncc2c1-c1cc(-c2cccc(OC[C@H]3COCCO3)n2)c2nc[nH]c(=O)c2c1N [Compound 97] | 10
